Source: patent publication US20250163057A1, “DCN-1 MODULATING COMPOUNDS AND METHODS OF USE THEREOF” (Cellarity, Inc., priority 2023, published 2025)
Where two headings read alike, the source gives them in different places.

Tests used:
[1] = tested on: Cullin-3 (CUL3) neddylation; experiment: AlphaLISA assay for Cullin-3 (CUL3) neddylation in TF 1 cells; format: cell-based; details: Homo sapiens, TF-1, 3 h, 3 hours treatment
Protocol: An AiphaLISA assay was performed to evaluate the ability of the compounds to suppress neddylation, which is downstream from DCN-1 and DCN-2. A stronger inhibition of DCN-1 and DCN-2 is expected to result in a suppression of neddylation as shown by a lower AlphaLISA signal. The AlphaLISA assay for detecting Cullin-3 (CUL3) neddylation was performed according to manufacturer instructions (Revvity, Hopkinton, MA). Briefly, TF 1 cells (ATCC) were plated in Iscove's Modified Dulbecco's Medium (IMIDM) without supplements in 384-well plates. These cells were treated with […] for 3 hours before lysing them with AlphaLISA lysis buffer, 5× (Revvity). To detect the level of CUL3 neddylation, biotinylated anti-NEDD8 antibody, was added followed by AlphaLISA Acceptor beads conjugated with anti-CUL3 antibody. After overnight incubation, Streptavidin-coated Alpha Donor beads were added and incubated for 1 hour. The AlphaLISA signal was then read on a VICTOR Nivo Multimode Microplate Reader (Revvity, Hopkinton, MA). The positive control was 1 μM DI-1548, which is reported to reduce CUL3 neddylation, also referred to as C-1 in Example 41 (Zhou et al. Nature Comm. 2021). The neddylation signal was normalized such that the percent inhibition is 0% for vehicle control and 100% for positive control. The dose-response curves were fitted with the Hill equation to obtain IC50 values (Graphpad Prism).

[2] = target: DCN1 (DCUND1) protein PONY domain (Homo sapiens (Human), UniProt Q96GG9); experiment: TR-FRET assay, DCN1 binding with FAM-labeled probe
DCN1 (DCUND1) protein PONY domain, sequence (Q96GG9 60-248): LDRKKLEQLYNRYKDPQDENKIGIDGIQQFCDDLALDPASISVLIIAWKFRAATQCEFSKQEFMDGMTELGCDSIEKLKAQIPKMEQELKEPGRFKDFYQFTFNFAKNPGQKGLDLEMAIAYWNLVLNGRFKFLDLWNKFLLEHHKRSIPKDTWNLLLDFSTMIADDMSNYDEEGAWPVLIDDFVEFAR
Procedure, shortened: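 TR-FRET ratio (Tb-DCN1 to FAM-probe) read at 1, 5 and 24 hrs after compound addition. Protein: recombinant PONY domain from E. coli, biotinylated and coupled to streptavidin terbium. Either 5 nM DCN1 with 20 nM FAM-probe, or 0.31 nM DCN1 with 100 nM FAM-labelled plus 800 nM unlabelled probe.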

[3] = 24 hr after treatment with compound, read-out: TR FRET IC50 24 hr
[4] = TR FRET IC50 1 hr (nM), 1 hr after treatment with compound
[5] = read-out: TR FRET IC50 1 hr, 1 hr after treatment with compound

Structure (SMILES)	IC50 [1] [nM]	IC50 [2, 3] [nM]	IC50 [2, 4] [nM]	IC50 [2, 5] [nM]
CCN1C(=O)[C@@H](NC(=O)c2cccc(C(F)(F)F)c2)[C@@H](c2ccc(F)cn2)c2c(C(=O)N3CCC[C@H]3C#N)nn(-c3ccccc3)c21 (mixture of isomers) [Compound I-409]	100 to 1000	≤ 200	1000 to 3000	–
CCN1C(=O)[C@@H](NC(=O)c2cccc(C(F)(F)F)c2)[C@@H](c2ccccn2)c2c(C(=O)N3CCC[C@H]3C#N)nn(-c3ccccc3)c21 (mixture of isomers) [Compound I-413]	≤ 100	≤ 200	1000 to 3000	–
CCN1C(=O)[C@H](NC(=O)c2cccc(C(F)(F)F)c2)[C@H](C2CC2)c2c(C(=O)N(C)C(C)C#N)nn(C3CCOCC3)c21 (mixture of isomers) [Compound I-415]	> 1000	1000 to 3000	1000 to 3000	–
CCN1C(=O)[C@@H](NC(=O)c2cccc(C(F)(F)F)c2)[C@@H](c2ccc(F)cc2)c2c(C(=O)N3C[C@H](NC)C[C@H]3C#N)nn(C3CCOCC3)c21 (mixture of isomers) [Compound I-509, N-((4S,5S)-3-((2S,4R)-2-cyano-4-(methylamino)pyrrolidine-1-carbonyl)-7-ethyl-4-(4-fluorophenyl)-6-oxo-1-(tetrahydro-2H-pyran-4-yl)-4,5,6,7-tetrahydro-1H-pyrazolo[3,4-b]pyridin-5-yl)-3-(trifluoromethyl)benzamide]	≤ 100	≤ 200	–	≤ 200
CCN1C(=O)[C@@H](NC(=O)c2cccc(C(F)(F)F)c2)[C@@H](C2CC2)c2c(C(=O)N3[C@H](C#N)C[C@H]4C[C@H]43)nn(C(C)(C)C)c21 (mixture of isomers) [Compound I-517]	100 to 1000	200 to 1000	1000 to 3000	–
CCN1C(=O)[C@@H](NC(=O)c2cccc(C(F)(F)F)c2)[C@@H](C2CC2)c2c(C(=O)N(C)C(C)C#N)nn(-c3ccccc3)c21 (mixture of isomers) [Compound I-543]	100 to 1000	≤ 200	–	≤ 200
CCN1C(=O)[C@@H](NC(=O)c2cccc(C(F)(F)F)c2)[C@@H](c2ccc(F)cc2)c2c([C@@H](CCO)NC#N)nn(-c3ccccc3)c21 (mixture of isomers) [Compound I-567, N-(rac-(4S,5S)-3-((R)-1-cyanamido-3-hydroxypropyl)-7-ethyl-4-(4-fluorophenyl)-6-oxo-1-phenyl-4,5,6,7-tetrahydro-1H-pyrazolo[3,4-b]pyridin-5-yl)-3-(trifluoromethyl)benzamide]	> 1000	1000 to 3000	1000 to 3000	–
CCN1C(=O)[C@@H](NC(=O)c2cccc(C(F)(F)F)c2)[C@@H](c2ccc(F)nc2)c2c(C(=O)N3CCC[C@H]3C#N)nn(C3CC3)c21 (mixture of isomers) [Compound I-585]	100 to 1000	≤ 200	1000 to 3000	–
CCN1C(=O)[C@@H](NC(=O)c2cccc(C(F)(F)F)c2)[C@@H](c2ccc(F)cc2)c2c([C@@H](CN(C)C)NC(N)=O)nn(-c3ccccc3)c21 (mixture of isomers) [Compound I-673]	> 1000	200 to 1000	200 to 1000	–
CCN1C(=O)[C@@H](NC(=O)c2cccc(C(F)(F)F)c2)[C@@H](c2ccc(F)cc2)c2c(C(F)CNC#N)nn(-c3ccccc3)c21 (mixture of isomers) [Compound I-679]	≤ 100	≤ 200	200 to 1000	–
CCN1C(=O)[C@@H](NC(=O)c2cccc(C(F)(F)F)c2)[C@@H](c2ccccn2)c2c([C@@H](C)NC#N)nn(-c3ccccc3)c21 (mixture of isomers) [Compound I-680]	≤ 100	≤ 200	200 to 1000	–
CCN1C(=O)[C@@H](NC(=O)c2cccc(C(F)(F)F)c2)[C@@H](c2ccc(F)cc2)c2c(C(=O)N3CC[C@H](NC)[C@H]3C#N)nn(C3CCOCC3)c21 (mixture of isomers) [Compound I-693, N-((4S,5S)-3-(trans-(2S,3S)-2-cyano-3-(methylamino)pyrrolidine-1-carbonyl)-7-ethyl-4-(4-fluorophenyl)-6-oxo-1-(tetrahydro-2H-pyran-4-yl)-4,5,6,7-tetrahydro-1H-pyrazolo[3,4-b]pyridin-5-yl)-3-(trifluoromethyl)benzamide]	≤ 100	≤ 200	–	≤ 200
CCN1C(=O)[C@H](NC(=O)c2cccc(C(F)(F)F)c2)[C@@H](c2ccc(F)cc2)c2c(C3(N(C)C#N)CC3)nn(-c3ccccc3)c21 (racemic) [Compound I-76]	> 1000	1000 to 3000	1000 to 3000	–
CCN1C(=O)[C@H](NC(=O)c2cccc(C(F)(F)F)c2)[C@@H](c2ccc(F)cc2)c2c(C3(NC#N)CC3)nn(-c3ccccc3)c21 (racemic) [Compound I-84]	> 1000	1000 to 3000	1000 to 3000	–
CCN1C(=O)[C@@H](NC(=O)c2cccc(C(F)(F)F)c2)[C@@H](c2ccc(F)cc2)c2c(CNC(=O)/C=C(\C)C(=O)OC)nn(-c3ccccc3)c21 (racemic) [Compound I-150, rac-methyl (E)-4-((((4R,5R)-7-ethyl-4-(4-fluorophenyl)-6-oxo-1-phenyl-5-(3-(trifluoromethyl)benzamido)-4,5,6,7-tetrahydro-1H-pyrazolo[3,4-b]pyridin-3-yl)methyl)amino)-2-methyl-4-oxobut-2-enoate]	> 1000	200 to 1000	1000 to 3000	–
CCN1C(=O)[C@@H](NC(=O)c2cccc(C(F)(F)F)c2)[C@@H](c2ccc(F)cc2)c2c(C(=O)N(C)[C@H](C#N)CCN(C)C)nn(-c3ccccc3)c21 (single isomer, unassigned) [Compound I-303, (4S,5S)—N-[(1S*)-1-cyano-3-(dimethylamino)propyl]-7-ethyl-4-(4-fluorophenyl)-N-methyl-6-oxo-1-phenyl-5-[3-(trifluoromethyl)benzamido]-4H,5H-pyrazolo[3,4-b]pyridine-3-carboxamide]	≤ 100	–	–	–
CCN1C(=O)[C@@H](NC(=O)c2cc(C)n(C(C)(C)C)n2)[C@@H](C2CC2)c2c(C(=O)N3[C@H](C#N)C[C@H]4C[C@H]43)nn(C3CCOCC3)c21 [Compound I-691]	–	≤ 200	1000 to 3000	–
CCN1C(=O)[C@@H](NC(=O)c2ccc3c(c2)OCCO3)[C@@H](C2CC2)c2c(C(=O)N3[C@H](C#N)C[C@H]4C[C@H]43)nn(C3CCOCC3)c21 [Compound I-695]	–	1000 to 3000	1000 to 3000	–
CCC(=O)N[C@@H]1C(=O)N(CC)c2c(c(C(=O)N3[C@H](C#N)C[C@H]4C[C@H]43)nn2C2CCOCC2)[C@@H]1C1CC1 [Compound I-696]	–	1000 to 3000	1000 to 3000	–
CCN1C(=O)[C@@H](NC(=O)c2cccc(C#N)c2)[C@@H](C2CC2)c2c(C(=O)N3[C@H](C#N)C[C@H]4C[C@H]43)nn(C3CCOCC3)c21 [Compound I-698]	–	200 to 1000	200 to 1000	–
CCN1C(=O)[C@@H](NC(=O)C23CC(C(F)(F)F)(C2)C3)[C@@H](C2CC2)c2c(C(=O)N3[C@H](C#N)C[C@H]4C[C@H]43)nn(C3CCOCC3)c21 [Compound I-701]	–	1000 to 3000	1000 to 3000	–
